Measurements: article PMC9085577, “Discovery of a Potent and Orally Active Dual GPBAR1/CysLT1R Modulator for the Treatment of Metabolic Fatty Liver Disease” (Frontiers in Pharmacology, 2022)

Test system: liver transcriptome
Test: AmpliSeq liver transcriptome of HFD-F mice
Format: in vivo
Conditions: liver
From the text: C57BL/6J male mice were fed a high fat diet (HFD) containing 59 KJ% fat plus 1% cholesterol, w/o sugar (ssniff ® EF R/M acc. D12330 mod. 22,7 ME/kg) and fructose (HFD-F) in drinking water (42 g/L), or normal chow diet for 61 days. Food intake was estimated as the difference of weight between the offered and the remnant amount of food at 3-days intervals. The food was provided as pressed pellets and the residual spillage was not considered. After 7 days, HFD-F mice were randomized to receive HFD-F alone or in combination with compound 2 (30 mg/kg/day) by gavage until the end of the experiment. Doses of each agent were chosen according to previously published data. Mice were housed under controlled temperature (22°C) and photoperiods (12:12-h light/dark cycle), allowed unrestricted access to standard mouse chow and tap water. The experimental protocol was approved by the Animal Care and Use Committee of the University of Perugia and by the Italian Minister of Health and Istituto Superiore di Sanità (Italy) and was in agreement with the European guidelines for use of experimental animals (permission n. 583/2017-PR). The general health of the animals was monitored daily by the Veterinarian in the animal facility. At the day of sacrifice, fed mice were deeply anesthetized with a mixture of tiletamine hypochloride and zolazepam hypochloride/xylazine at a dose of 50/5 mg/kg and sacrificed before 12 a.m.
High-quality RNA was extracted from mice livers, using the Direct-zol™ RNA MiniPrep w/Zymo-Spin™ IIC Columns (Zymo Research, Irvine, CA) according to the manufacturer’s instructions. RNA quality and quantity were assessed with the Qubit® RNA HS Assay Kit and a Qubit 3.0 fluorometer (Invitrogen, Carlsbad, CA) followed by agarose gel electrophoresis. Libraries were generated using the Ion AmpliSeq™ Transcriptome Mouse Gene Expression Core Panel and Chef-Ready Kit (Comprehensive evaluation of AmpliSeq transcriptome, a whole transcriptome RNA sequencing methodology) (Thermo Fisher Scientific, Waltham, MA). Briefly, 10 ng of RNA was reverse transcribed with SuperScript™ Vilo™ cDNA Synthesis Kit (Thermo Fisher Scientific, Waltham, MA) before library preparation on the Ion Chef™ instrument (Thermo Fisher Scientific, Waltham, MA). The resulting cDNA was amplified to prepare barcoded libraries using the Ion Code™ PCR Plate, and the Ion AmpliSeq™ Transcriptome Mouse Gene Expression Core Panel (Thermo Fisher Scientific, Waltham, MA), Chef-Ready Kit, according to the manufacturer’s instructions. Barcoded libraries were combined to a final concentration of 100 p.m., and used to prepare Template-Positive Ion Sphere™ (Thermo Fisher Scientific, Waltham, MA) Particles to load on Ion 540™ Chips, using the Ion 540™ Kit-Chef (Thermo Fisher Scientific, Waltham, MA). Sequencing was performed on an Ion S5™ Sequencer with Torrent Suite™ Software v6 (Thermo Fisher Scientific, Waltham, MA). The analyses were performed with a range of fold <−2 and >+2 and a p value <0.05, using Transcriptome Analysis Console Software (version 4.0.1), certified for AmpliSeq analysis (Thermo-Fisher). The transcriptomic data have been deposited as dataset on Mendeley data repository (reference number linking to the repository: Fiorucci, Stefano; Biagioli, Michele; Marchianò, Silvia; Di Giorgio, Cristina (2021), “Discovery of potent dual GPBAR1/CysLT1R modulator for the treatment of metabolic fatty liver disease,” Mendeley Data, V1, doi: 10.17632/6dnrk9fc72.1).

## O=C(O)c1cccc(-c2ccc(OCc3ccc4ccccc4n3)cc2)c1 [Compound 2, 4'-(quinolin-2-ylmethoxy)-[1,1′-biphenyl]-3-carboxylic acid]
HFD + compound 2
  Gdf15 transcript Avg (log2): 3.91 log2
  Glipr1 transcript Avg (log2): 0.71 log2
  Glipr2 transcript Avg (log2): 1.26 log2
  Gm16063 transcript Avg (log2): 1.79 log2
  Gm30692 transcript Avg (log2): 0.5 log2
  Gm31555 transcript Avg (log2): 1.31 log2
  Gm31649 transcript Avg (log2): 2.75 log2
  Gm36796 transcript Avg (log2): 1.53 log2
  Gnat1 transcript Avg (log2): 3.01 log2
  Gngt1 transcript Avg (log2): 1.67 log2
  Gpnmb transcript Avg (log2): 0.3 log2
  Hnf4aos transcript Avg (log2): 3.75 log2
  Hnrnpa0 transcript Avg (log2): 2.3 log2
  Hspa5 transcript Avg (log2): 8.51 log2
  Igip transcript Avg (log2): 2.38 log2
  Il1b transcript Avg (log2): 1.8 log2
  Il1rn transcript Avg (log2): 1.01 log2
  Insig2 transcript Avg (log2): 5.39 log2
  Itgam transcript Avg (log2): 0.58 log2
  Kif20a transcript Avg (log2): 1.39 log2
  LOC108167447 transcript Avg (log2): 2.05 log2
  LOC108168323 transcript Avg (log2): 1.86 log2
  Lactb2 transcript Avg (log2): 3.85 log2
  Ly6d transcript Avg (log2): 1.72 log2
  Meg3 transcript Avg (log2): 4.04 log2
  Mettl9 transcript Avg (log2): 4.9 log2
  Mki67 transcript Avg (log2): 1.5 log2
  Mogat1 transcript Avg (log2): 2.35 log2
  Mthfd2 transcript Avg (log2): 1.97 log2
  Mvd transcript Avg (log2): 1.98 log2
  Nat8 transcript Avg (log2): 3.26 log2
  Neat1 transcript Avg (log2): 7.09 log2
  Npas2 transcript Avg (log2): 0.62 log2
  Nr4a1 transcript Avg (log2): 3.27 log2
  Nrep transcript Avg (log2): 6.14 log2
  Nuak2 transcript Avg (log2): 5.66 log2
  Pcbp1 transcript Avg (log2): 2.29 log2
  Pcp4l1 transcript Avg (log2): 3.46 log2
  Pdilt transcript Avg (log2): 4.25 log2
  Pdpn transcript Avg (log2): 0.96 log2
  Per3 transcript Avg (log2): 5.27 log2
  Plau transcript Avg (log2): 1.27 log2
  Plaur transcript Avg (log2): 1.66 log2
  Pld6 transcript Avg (log2): 4.01 log2
  Plekhg3 transcript Avg (log2): 6.24 log2
  Plxnc1 transcript Avg (log2): 2.12 log2
  Pnpla3 transcript Avg (log2): 4 log2
  Podn transcript Avg (log2): 3.56 log2
  Ppp1r3c transcript Avg (log2): 4.08 log2
  Prox1 transcript Avg (log2): 7.62 log2
  Psat1 transcript Avg (log2): 0.72 log2
  Ptgs2 transcript Avg (log2): 0.21 log2
  Raet1e transcript Avg (log2): 1.49 log2
  Raet1d transcript Avg (log2): 2.83 log2
  Ralbp1 transcript Avg (log2): 3.21 log2
  Rhob transcript Avg (log2): 3.81 log2
  Rrs1 transcript Avg (log2): 1.59 log2
  Saa4 transcript Avg (log2): 9.44 log2
  Sart3 transcript Avg (log2): 4.81 log2
  Sbk1 transcript Avg (log2): 4.33 log2
  Sec11c transcript Avg (log2): 3.53 log2
  Senp1 transcript Avg (log2): 3.87 log2
  Serpina7 transcript Avg (log2): 4.57 log2
  Serpine1 transcript Avg (log2): 2.19 log2
  Slc16a1 transcript Avg (log2): 2.98 log2
  Slc17a8 transcript Avg (log2): 2.05 log2
  Slc39a8 transcript Avg (log2): 3.52 log2
  Slc40a1 transcript Avg (log2): 3.94 log2
  Slc46a3 transcript Avg (log2): 4.69 log2
  Spon2 transcript Avg (log2): 1.99 log2
HFD-F + compound 2
  Sqle transcript Avg (log2): 1.02 log2
  Stfa3 transcript Avg (log2): 0 log2
  Taok3 transcript Avg (log2): 6.27 log2
  Tk1 transcript Avg (log2): 5.13 log2
  Tmx1 transcript Avg (log2): 5.44 log2
  Tnf transcript Avg (log2): 0.14 log2
  Tnfrsf23 transcript Avg (log2): 0.63 log2
  Tnnc1 transcript Avg (log2): 1.54 log2
  Tsku transcript Avg (log2): 4.72 log2
  Ubqln2 transcript Avg (log2): 2.22 log2
